# Reference: publication PMC2990764, “Evolution of Allosteric Citrate Binding Sites on 6-phosphofructo-1-kinase” (PLoS ONE, 2010)
# Changes are numbered by the printed parent chain.
# Assays:
# Test in all cases: coupled spectrophotometric PFK1 assay ([…] nm) with purified enzyme
# Assay type in all cases: biochemical
# [1] = molecular target: T1, human muscle type 6-phosphofructo-1-kinase (PFK-M) (Homo sapiens, UniProt P08237, K557R)
# T1 construct: gene PFKM; recombinant human PFK-M mutant expressed in E. coli RL257
# T1 sequence (P08237 2-780 K557R): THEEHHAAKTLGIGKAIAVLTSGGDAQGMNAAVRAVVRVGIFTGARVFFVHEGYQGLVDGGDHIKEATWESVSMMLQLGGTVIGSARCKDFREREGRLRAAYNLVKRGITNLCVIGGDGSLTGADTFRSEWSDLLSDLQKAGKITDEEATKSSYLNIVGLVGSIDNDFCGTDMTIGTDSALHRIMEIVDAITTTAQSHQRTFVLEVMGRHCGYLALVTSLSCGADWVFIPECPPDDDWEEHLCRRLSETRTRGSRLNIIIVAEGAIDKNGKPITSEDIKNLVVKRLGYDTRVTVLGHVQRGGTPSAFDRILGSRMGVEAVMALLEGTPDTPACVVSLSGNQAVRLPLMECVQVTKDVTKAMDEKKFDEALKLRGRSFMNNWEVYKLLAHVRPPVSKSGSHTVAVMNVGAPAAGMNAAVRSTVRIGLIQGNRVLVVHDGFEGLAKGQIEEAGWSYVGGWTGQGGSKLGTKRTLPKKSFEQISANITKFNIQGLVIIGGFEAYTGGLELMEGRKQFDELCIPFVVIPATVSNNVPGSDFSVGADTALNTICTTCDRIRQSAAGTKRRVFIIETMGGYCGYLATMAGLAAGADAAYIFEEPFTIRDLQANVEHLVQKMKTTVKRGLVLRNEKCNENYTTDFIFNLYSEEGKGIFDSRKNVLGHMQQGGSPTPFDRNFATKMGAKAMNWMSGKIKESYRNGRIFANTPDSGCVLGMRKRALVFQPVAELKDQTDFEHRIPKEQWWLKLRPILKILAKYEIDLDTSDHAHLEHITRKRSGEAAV
# [2] = molecular target: T2, human muscle type 6-phosphofructo-1-kinase (PFK-M) (Homo sapiens, UniProt P08237, K617A)
# T2 construct: gene PFKM; recombinant human PFK-M mutant expressed in E. coli RL257
# T2 sequence (P08237 2-780 K617A): T1 sequence (P08237 2-780 K557R) with R556K, K616A
# [3] = molecular target: T3, human muscle type 6-phosphofructo-1-kinase (PFK-M) (Homo sapiens, UniProt P08237)
# T3 construct: gene PFKM; recombinant native human PFK-M expressed in E. coli RL257
# T3 sequence (P08237 2-780): T1 sequence (P08237 2-780 K557R) with R556K
smiles,measurement,setting,value
O=C(O)CC(O)(CC(=O)O)C(=O)O [citrate],Ki,[1],300 µM
same,Ki,[2],500 µM
same,Ki,[3],50 µM
